Reference: patent publication US20220265759A1, “COMPOSITION AND METHOD FOR PROMOTING WOUND HEALING” (THE BOARD OF TRUSTEES OF THE UNIVERSITY OF ILLIOIS, priority 2019, published 2022)
Peptide text beside a SMILES is read from it. * marks the point of attachment. Myristoyl = CCCCCCCCCCCCCC(=O)*

How the values were obtained:
CCR10-eNOS interaction = target: T1, CCR10-eNOS interaction (Homo sapiens, UniProt P46092); assay: Co-IP of CCR10-eNOS interaction in HUVECs stimulated with A23187; format: cell-based; details: endothelial cells (HUVECs), pretreatment 50 μM, 5 μM A23187 for 5 minutes, vs control peptide
T1 construct: host or cells: HUVEC (primary human umbilical vein endothelial cells)
T1 sequence (P46092 1-362): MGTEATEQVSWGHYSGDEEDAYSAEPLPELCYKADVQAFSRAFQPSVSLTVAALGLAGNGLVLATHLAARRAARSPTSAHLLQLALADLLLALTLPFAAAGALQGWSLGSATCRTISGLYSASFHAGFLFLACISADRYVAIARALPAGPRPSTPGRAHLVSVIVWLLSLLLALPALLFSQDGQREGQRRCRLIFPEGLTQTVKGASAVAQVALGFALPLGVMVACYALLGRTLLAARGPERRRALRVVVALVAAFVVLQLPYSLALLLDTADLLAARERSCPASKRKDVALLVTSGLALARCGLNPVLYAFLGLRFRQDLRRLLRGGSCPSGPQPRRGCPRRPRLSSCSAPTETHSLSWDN
Protocol: (§1) Immunoblot and Co-Immunoprecipitation (Co-IP). After serum starvation, inhibitors were added 45 minutes prior to stimulation for indicated times at 37° C., and cells were then collected and lysed for western blot analysis. After probing for p-eNOS (Ser1177), p-p85 (Tyr458), p-Src (Tyr 416), and p-ERK (T202/Y204), the same blots were stripped and re-probed for total proteins mentioned above. For detection of CCL28-induced protein levels of β-catenin and Bcl-2, near-confluent endothelial cells were incubated with 500 ng/ml CCL28 for 24 hours in EGM-2 medium containing 1% FBS.
Co-IP Experiments, cells or mouse wounds were collected after treatment, and lysed in 2% ODG in Tris buffer. The homogenates were further prepared for Co-IP experiments as described in the art (Chen, et al. (2018) Mol. Biol. Cell 29(10):1190-1202; Chen, et al. (2020) FASEB J. 34(4):5838-5850; Chen, et al. (2015) Ann. Rheum. Dis. 74:1898-1906).
Therefore, the effect of inhibition of CCR10-eNOS interaction was investigated using a panel of cell-permeable peptides based on the sequence of the predicted interaction domain on eNOS. Similar peptides have been described in determining the solution structure of calmodulin bound to the target peptide of eNOS (Piazza, et al. (2014) Biochemistry 53(8):1241-9; Piazza, et al. (2016) Biochemistry 55(42):5962-71). First, myristoylated 20 amino acid peptide (491-[…]-510 (P1); SEQ ID NO:61) was synthesized based on the sequence of human eNOS (which is conserved in mouse eNOS). […] It was subsequently determined whether truncated versions of the CBD-derived peptide would have the same effect.

[1] = test system: full thickness excisional wounds on mouse dorsal skin; assay: Excisional dermal wound healing in WT C57BL/6 mice; format: in vivo; details: for reduction of wound size: compared to control peptide
Protocol: (§2) Mouse Healing Models. All animal procedures were performed in accordance with the Guide for the Care and Use of Laboratory Animals (National Institutes of Health). WT C57BL/6, eNOS^−/− and db/db mice were purchased from Jackson Laboratory (Bar Harbor, Me.). CCR10^−/− mice have been described in the art, see, e.g., Jin, et al. (2011) J. Immunol. 185(10):5723-31. Four 5-mm or two 8-mm full thickness excisional wounds were made on the dorsal skin of mice (male, aged at 9 weeks) using a standard skin biopsy punch under ketamine (100 mg/kg) and xylazine (5 mg/kg) anesthesia. Scrambled myristoylated (Myr−) control or Myr-CBD7 peptides were applied topically to wounds in F-127 gel sold under the tradename PLURONIC® after wounding (Mirza, et al. (2009) Am. J. Pathol. 175:2454-2462). Wound size was determined as previously described (Chen, et al. (2020) FASEB J. 34(4):5838-5850; Zhao, et al. (2016) PLoS ONE. 11:e0146451) and wounds were collected at indicated times for indicated measurements.
Hematoxylin and Eosin (H&E) Staining. H&E staining was performed as described previously (Chignalia, et al. (2015) Am. J. Pathol. 185:1251-1263). Slides with 5 μm tissue sections were baked at 60° C. for 30 minutes and stained with an Autostainer XL (Leica Microsystems, Wetzlar, Germany) using preset protocol. Briefly, slides were deparaffinized in three changes of xylene, rehydrated in 100% and 95% ethanol, […] followed by a brief immersion in High-Def and Bluing to obtain crisp nuclear details. Slides were then incubated in eosin for 2 minutes, dehydrated and mounted with Micromount media (Leica Biosystems). Whole slide images were obtained using Aperio AT2 brightfield scanner (Leica Microsystems, Wetzlar, Germany).
CCL28 (also called mucosa-associated epithelial chemokine) is a CC chemokine that signals via CCR10 as well as CCR3 (Pan, et al. (2000) J. Immunol. 165:2943). CCR10 has been reported to have two functional ligands, CCL27 and CCL28 that are involved in the epithelial immunity (Xiang, et al. (2012) Protein Cell 3:571-580). It was observed that CCL28 and CCR10 levels were highly expressed compared to CCL27 and CCR3 in skin of WT C57BL/6 mice. […] Therefore, it was subsequently investigated whether blockade of CCR10-eNOS interaction with Myr-CBD7 peptide has an effect on wound healing in WT C57BL/6 mice. Four 5 mm diameter full thickness excisional wounds were made on the mouse dorsal skin and 30 μl Myr-CBD7 peptide (50 μM) was topically administrated onto the wounds immediately after creating the punch wound.

[2] = test system: full thickness excisional wounds on db/db mouse dorsal skin; assay: Excisional dorsal skin wound healing in diabetic db/db mice; format: in vivo
Protocol: as §2
(§3) Two 8 mm full thickness excisional wounds were made on the dorsal skin of diabetic db/db mice and then 50 μl of 50 μM Myr-CBD7 peptide was topically applied. […] Reduced CCR10-eNOS interaction was also observed in the mouse wounds following treatment with Myr-CBD7 peptide as determined by Co-IP (FIG. 6).

eNOS = eNOS expression in db/db mouse wounds (western blot); format: in vivo, db/db mice; details: day 12
Protocol: as §1, §3

HEK/eNOS cells = assay: NO production in HEK/eNOS cells; format: cell-based, human; details: HEK/eNOS cells with/without co-expression of CCR10-GFP, pretreatment, compared with control peptide

## CCCCCCCCCCCCCC(=O)N[C@@H](CCCCN)C(=O)N[C@H](C(=O)N[C@@H](CO)C(=O)N[C@@H](C)C(=O)N[C@@H](CO)C(=O)N[C@@H](CC(C)C)C(=O)N[C@@H](CCSC)C(=O)O)[C@@H](C)CC [Myr-CBD7, myr-KISASLM] (Myristoyl-KISASLM-OH)
CCR10-eNOS interaction
  CCR10-eNOS interaction (Co-IP): significant reduction
CCR10-eNOS interaction; listed as P4
  CCR10-eNOS interaction (Co-IP): completely blocked
[1]; day 5, 30 μl of 50 μM topical
  reduction of wound size: 20%
[1]; day 5 and 7, 30 μl (50 μM) per wound, vs Myr-control construct, P<0.05
  wound size (FIG. 1): reduced wound size significantly
[1]; day 7, 30 μl of 50 μM topical
  reduction of wound size: 35%
[1]; day 7, vs control construct
  re-epithelization of the skin wound (H&E stained sections): associated with re-epithelization of the skin wound
[1]; topical administration on dermal wounds
  wound healing time: decreased
[2]; 50 μl of 50 μM topical, vs control peptide
  decrease of wound healing time: 4 days
[2]; day 4, compared to control peptide
  reduction of wound size: 19%
[2]; day 12, compared to control peptide
  reduction of wound size: 46%
[2]; from day 4, 30 μl (50 μM) topical, compared with control construct
  wound size (FIG. 5): reduces wound size significantly
eNOS
  eNOS expression in wounds: significantly elevated
HEK/eNOS cells
  NO production: elevated significantly
